Experimental data published in patent US20240383882A1 (Ecstasy LLC, priority 2020, published 2024).
Structures can show the parent of a compound that is named as a salt. Where two headings read alike, the source gives them in different places.

System: male C57BL/6 mice
Assay: 55° C. warm-water tail-flick test (antinociception)
Assay type: in vivo
Conditions: Mus musculus
How it was run: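 Subcutaneous dosing, then tail immersion in 55° C water at 30–120 min; latency normalized as 100×(test−control)/(20−control), using a 20 s cutoff, after excluding mice not responding within 2 s at baseline. Values expressed as ED50 (mg/kg).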

[1] = half maximal effective dose in mice, using one of: warm water tail-flick test, spared nerve injury, chronic constriction injury, or Complete Freund's adjuvant induced inflammatory pain (not stated which per compound), read-out: Biological Activity (ED50)
[2] = sc, 0.5 h, compounds of Table I, s.c., 30 min, 55° C. water, configuration tested as in Table II, read-out: ED50 (mg/kg) at 30 min on C57BL/6 mice in Warm-water Tail-flick Test

SMILES	ED50 [1] [mg/kg]	ED50 [2] [mg/kg]
CC(C)(c1ccc(C(F)(F)F)nc1)N1CC[C@@](CCc2ccc(C#N)cc2)(COCC(F)(F)F)C1 [Compound 28, (R)-4-(2-(3-((2,2,2-trifluoroethoxy)methyl)-1-(2-(6-(trifluoromethyl)pyridin-3-yl)propan-2-yl)pyrrolidin-3-yl)ethyl) benzonitrile]	> 50	–
CC(C)(c1ccc(S(C)(=O)=O)cc1)N1CC[C@@](CCc2ccc(F)cc2)(COCc2ccccc2)C1 [Compound 33, (R)-3-((benzyloxy)methyl)-3-(4-fluorophenethyl)-1-(2-(4-(methylsulfonyl)phenyl)propan-2-yl)pyrrolidine]	> 50	–
CCC(C)(c1ccc(S(C)(=O)=O)cc1)N1CC[C@@](CCc2ccc(F)cc2)(COCc2ccccc2)C1 (stereo partly drawn) [Compound 34, (3R)-3-((benzyloxy)methyl)-3-(4-fluorophenethyl)-1-(2-(4-(methylsulfonyl)phenyl)butan-2-yl)pyrrolidine]	> 50	–
CC(C)(c1ccc(Cl)cc1)N1CC[C@](CO)(CCc2ccc(S(C)(=O)=O)cc2)C1 [Compound 35, (R)-(1-(2-(4-chlorophenyl)propan-2-yl)-3-(4-(methylsulfonyl)phenethyl)pyrrolidin-3-yl)methanol]	> 50	–
CC(C)(c1ccc(S(C)(=O)=O)cc1)N1CC[C@](CO)(CCc2ccc(F)cc2)C1 [Compound 36, (R)-(3-(4-fluorophenethyl)-1-(2-(4-(methylsulfonyl)phenyl)propan-2-yl)pyrrolidin-3-yl)methanol]	> 50	–
CC(C)(c1ccc(Cl)cc1)N1CC[C@@](CCc2ccc(S(C)(=O)=O)cc2)(COCc2ccccc2)C1 [Compound 37, (R)-3-((benzyloxy)methyl)-1-(2-(4-chlorophenyl)propan-2-yl)-3-(4-(methylsulfonyl)phenethyl) pyrrolidine]	> 50	–
CSc1ccc(C(C)(C)N2CC[C@@](CCc3ccc(F)cc3)(COCc3ccccc3)C2)cc1 [Compound 40, (R)-3-((benzyloxy)methyl)-3-(4-fluorophenethyl)-1-(2-(4-(methylthio)phenyl)propan-2-yl)pyrrolidine]	> 50	–
CC(C)(c1ccccn1)N1CC[C@](CCc2ccc(C#N)cc2)([C@@H]2CCCO2)C1 [Compound 41, 4-(2-((S)-1-(2-(pyridin-2-yl)propan-2-yl)-3-((S)-tetrahydrofuran-2-yl)pyrrolidin-3-yl)ethyl) benzonitrile]	> 50	≤ 30
COC[C@@]1(CCc2ccc(S(C)(=O)=O)cc2)CCN(C(C)(C)c2ccc(Cl)cc2)C1 [Compound 43]	> 50	–
CC(C)(c1ccc(Cl)cc1)N1CC[C@@](CO)(CCc2ccc(S(C)(=O)=O)cc2)C1 [Compound 44]	> 50	–
COC[C@@]1(CCc2ccc(S(C)(=O)=O)cc2)CCN(C(C)(C)c2ccc(Cl)cn2)C1 [Compound 45]	> 50	–
CCOC[C@@]1(CCc2ccc(S(C)(=O)=O)cc2)CCN(C(C)(C)c2ccc(Cl)cc2)C1 [Compound 51]	≤ 30	–
CC(C)(c1ccccn1)N1CC[C@](CO)(CCc2ccc(S(C)(=O)=O)cc2)C1 [Compound 53]	> 50	–
COC[C@]1(CCc2ccc(C#N)cc2)CCN(C(C)(C)c2ccccn2)C1 [Compound 59]	> 50	–
CC(C)(O)[C@@]1(CCc2ccc(C#N)cc2)CCN(C(c2cccnc2)c2cccnc2)C1 [Compound 63]	> 50	–
N#Cc1ccc(CC[C@]2(CO)CCN(C(c3ccc(F)cc3)c3cccnc3)C2)cc1 (stereo partly shown) [Compound 64]	> 50	–
Cc1ccc(N(C)N2CC[C@@](CO)(CCc3ccccc3)C2)cn1 [Compound 68]	> 50	–
CCOCC1(CCn2cnc3cnccc32)CCN(C(C)(C)c2ccc(C)nc2)C1 (stereo not shown) [Compound 91, 1-(2-(3-(ethoxymethyl)-1-(2-(6-methylpyridin-3-yl)propan-2-yl)pyrrolidin-3-yl)ethyl)-1H-imidazo[4,5-c]pyridine citrate]	–	≤ 30
CCOCC1(CCn2c(=O)[nH]c3cnccc32)CCN(C(C)(C)c2ccc(C)nc2)C1 (stereo not shown) [Compound 92, 1-(2-(3-(ethoxymethyl)-1-(2-(6-methylpyridin-3-yl)propan-2-yl)pyrrolidin-3-yl)ethyl)-1,3-dihydro-2H-imidazo[4,5-c]pyridin-2-one citrate]	–	≤ 30
CC(C)(c1ccccn1)N1CC[C@@](CCc2ccc(C#N)cc2)(C(=O)C(F)(F)F)C1 [Compound 100, (R)-4-(2-(1-(2-(pyridin-2-yl)propan-2-yl)-3-(2,2,2-trifluoroacetyl)pyrrolidin-3-yl)ethyl) benzonitrile]	> 50	–

SMILES	ED50 [1] [mg/kg]	ED50 [2] [mg/kg]
CCOCC1(CCn2c(=O)n(CC(C)C)c3cc(F)c(F)cc32)CCN(C(C)(C)c2ccc(C)nc2)C1 (stereo not shown) [Compound 100]	–	≤ 30
CC(C)(c1ccccn1)N1CC[C@@](CCc2ccc(C#N)c(F)c2)(C(=O)C(F)(F)F)C1 [Compound 105, (R)-2-fluoro-4-(2-(1-(2-(pyridin-2-yl)propan-2-yl)-3-(2,2,2-trifluoroacetyl)pyrrolidin-3-yl)ethyl) benzonitrile]	> 50	–
CC(C)(c1ccccn1)N1CC[C@@](CCc2ccc(C#N)cc2)(c2ncc[nH]2)C1 [Compound 107, (R)-4-(2-(3-(1H-imidazol-2-yl)-1-(2-(pyridin-2-yl)propan-2-yl)pyrrolidin-3-yl)ethyl) benzonitrile]	> 50	–
CC(C)(c1ccccn1)N1CC[C@@](CCc2ccc(C#N)cc2)(c2ncc(C(F)(F)F)[nH]2)C1 [Compound 108, (R)-4-(2-(1-(2-(pyridin-2-yl)propan-2-yl)-3-(5-(trifluoromethyl)-1H-imidazol-2-yl)pyrrolidin-3-yl)ethyl) benzonitrile]	> 50	–
CC(C)(c1ccccn1)N1CC[C@@](CCc2ccc(C#N)cc2F)(COCc2ccccc2)C1 [Compound 109, (R)-4-(2-(3-((benzyloxy)methyl)-1-(2-(pyridin-2-yl)propan-2-yl)pyrrolidin-3-yl)ethyl)-3-fluorobenzonitrile]	> 50	–
CC(C)(c1ccccn1)N1CC[C@](CO)(CCc2ccc(C#N)c(F)c2)C1 [Compound 110, (R)-2-fluoro-4-(2-(3-(hydroxymethyl)-1-(2-(pyridin-2-yl)propan-2-yl)pyrrolidin-3-yl)ethyl) benzonitrile]	≤ 30	–
CC(C)(c1ccccn1)N1CC[C@](CO)(CCc2ccc(C#N)cc2F)C1 [Compound 111, (R)-3-fluoro-4-(2-(3-(hydroxymethyl)-1-(2-(pyridin-2-yl)propan-2-yl)pyrrolidin-3-yl)ethyl) benzonitrile]	> 50	–
CC(C)(c1ccccn1)N1CC[C@@](CCc2ccc(C#N)c(F)c2)(COCc2ccccc2)C1 [Compound 112, (R)-4-(2-(3-((benzyloxy)methyl)-1-(2-(pyridin-2-yl)propan-2-yl)pyrrolidin-3-yl)ethyl)-2-fluorobenzonitrile]	> 50	–
CC(C)(c1ccccn1)N1CC[C@@](CCc2ccc(C#N)cn2)(COCc2ccccc2)C1 [Compound 113, (R)-6-(2-(3-((benzyloxy)methyl)-1-(2-(pyridin-2-yl)propan-2-yl)pyrrolidin-3-yl)ethyl) nicotinonitrile]	> 50	–
CC(C)(c1ccccn1)N1CC[C@](CO)(CCc2ccc(C#N)cn2)C1 [Compound 114, (R)-6-(2-(3-(hydroxymethyl)-1-(2-(pyridin-2-yl)propan-2-yl)pyrrolidin-3-yl)ethyl) nicotinonitrile]	> 50	–
CC(C)(c1ccccn1)N1CC[C@](CN)(CCc2ccc(C#N)cc2)C1 [Compound 115, (S)-4-(2-(3-(aminomethyl)-1-(2-(pyridin-2-yl)propan-2-yl)pyrrolidin-3-yl)ethyl) benzonitrile]	> 50	–
CC(C)(c1ccccn1)N1CC[C@@](CCc2ccc(C#N)cc2)(C(O)(C(F)(F)F)C(F)(F)F)C1 [Compound 119, (R)-4-(2-(3-(1,1,1,3,3,3-hexafluoro-2-hydroxypropan-2-yl)-1-(2-(pyridin-2-yl)propan-2-yl)pyrrolidin-3-yl)ethyl) benzonitrile]	> 50	–
CC(C)(c1ccccn1)N1CC[C@@](CCc2ccc(C#N)cc2)(c2nnco2)C1 [Compound 124, (R)-4-(2-(3-(1,3,4-oxadiazol-2-yl)-1-(2-(pyridin-2-yl)propan-2-yl)pyrrolidin-3-yl)ethyl) benzonitrile]	> 50	–
CC(C)(c1ccccn1)N1CC[C@@](CCc2cccc(C#N)c2)(COCc2ccccc2)C1 [Compound 125, (R)-3-(2-(3-((benzyloxy)methyl)-1-(2-(pyridin-2-yl)propan-2-yl)pyrrolidin-3-yl)ethyl) benzonitrile]	> 50	–
CC(C)(c1ccccn1)N1CC[C@@](CCc2ccccc2C#N)(COCc2ccccc2)C1 [Compound 126, (R)-2-(2-(3-((benzyloxy)methyl)-1-(2-(pyridin-2-yl)propan-2-yl)pyrrolidin-3-yl)ethyl) benzonitrile]	> 50	–
CC(C)(c1ccccn1)N1CC[C@](CO)(CCc2cccc(C#N)c2)C1 [Compound 127, (R)-3-(2-(3-(hydroxymethyl)-1-(2-(pyridin-2-yl)propan-2-yl)pyrrolidin-3-yl)ethyl) benzonitrile]	> 50	–
CCOC[C@]1(CCc2cccc(C#N)c2)CCN(C(C)(C)c2ccccn2)C1 [Compound 128, (R)-3-(2-(3-(ethoxymethyl)-1-(2-(pyridin-2-yl)propan-2-yl)pyrrolidin-3-yl)ethyl) benzonitrile]	> 50	–
CC(C)(c1ccccn1)N1CC[C@](CO)(CCc2ccccc2C#N)C1 [Compound 129, (R)-2-(2-(3-(hydroxymethyl)-1-(2-(pyridin-2-yl)propan-2-yl)pyrrolidin-3-yl)ethyl) benzonitrile]	> 50	–
CCOC[C@]1(CCc2ccccc2C#N)CCN(C(C)(C)c2ccccn2)C1 [Compound 130, (R)-2-(2-(3-(ethoxymethyl)-1-(2-(pyridin-2-yl)propan-2-yl)pyrrolidin-3-yl)ethyl) benzonitrile]	> 50	–
